According to patent US11248024B2, “Noxa-derived, cell death-inducing peptide eMTD” (INDUSTRY-ACADEMIC COOPERATION FOUNDATION, CHOSUN UNIVERSITY, priority 2019, dated 2022):
Ends that are not written are not given here.

Columns and labels:
HeLa cells [1] = test: Intracellular calcium level, Fluo-4, confocal microscope; format: cell-based, human; settings: Fluo-4, 20 μM (FIG. 4)
Experimental: In order to examine the mechanism in which the peptide eMTD (SEQ ID NO: 1) induces cell death in cancer cell lines, a change in intracellular calcium level, which is known as an important factor for cell death, was observed using the calcium indicator Fluo-4 under a confocal microscope (Leica).
In brief, HeLa cells were grown to about 70% confluency in a Lab-Tek chamber glass a day before the experiment. Immediately before the experiment, of the calcium indicator Fluo-4 was diluted to a concentration of 5 in HBSS. HeLa cells were incubated with the dilution for 10 min in an incubator and then treated with the peptide eMTDΔ4 (SEQ ID NO: 2).

CT26 = test: MTS assay, relative cell viability, CT26; format: cell-based, murine
Experimental: (§1) Individual cell lines (HeLa, CT26, and B16F10) were purchased from the Korean Cell Line Bank. Dulbecco's modified Eagle's medium (DMEM), trypsin-EDTA, fetal bovine serum (FBS), and Hank's balanced salt solution (HBSS) were products from Gibco (Thermo Fisher).
(§2) Each of the cell lines was cultured in DMEM supplemented with 10% FBS in an incubator maintained at 37° C. and 5% 002.
Examination was made to see whether the peptide has the activity of inducing cell death in other cancer cell lines. […]

B16F10 = test: MTS assay, relative cell viability, B16F10; format: cell-based, murine
Experimental: as §1, §2
(§3) Examination was made to see whether the peptide has the activity of inducing cell death in other cancer cell lines. In this regard, the cancer cell lines HeLa, CT26, and B16F10 were treated with eMTDΔ4 (SEQ ID NO: 2) at concentrations of 0, 20, and 40 μM.

HeLa cells [2] = test: Microscopic observation of morphological change in cells; format: cell-based, human; settings: 20 μM, 3 min
Experimental: In order to observe morphological changes in cells in detail, the cells were incubated with 20 μM of the peptide eMTDΔ4 (SEQ ID NO: 2) and observed with the aid of a microscope (Leica). The results are depicted in FIG. 2.

[3] = system: mitochondria isolated from livers of BalB/C mice; test: Mitochondrial swelling, absorbance at 540 nm / TEM; format: biochemical; settings: for Mitochondrial swelling, relative absorbance at 540 nm: peptides 25 μM, Ca2+ 200 μM, CsA 20 μM
Experimental: First, livers excised from 6-week-old BalB/C mice were immersed in buffer (250 mM mannitol, […], 5 mM HEPES, pH 7.4, 0.1 mM PMSF and 4 rotenone) and completely homogenized using a Teflon Potter-Elvehjem grinder (Sigma). The ground liver was centrifuged at 1000×g for 10 min at 4° C. and the supernatants were centrifuged at 10,000×g for 10 min at 4° C. The pellets thus obtained were suspended in a regeneration buffer (250 mM sucrose, 10 mM HEPES, pH 7.4, 5 mM sodium succinate, 2 mM potassium phosphate, 0.1 mM PMSF, 25 μM EGTA, and 4 rotenone).
The mitochondria thus obtained were treated with 25 μM of eMTD (SEQ ID NO: 1) or eMTDΔ4 (SEQ ID NO: 2), followed by reading absorbance at 540 nm to determine mitochondrial swelling.

HeLa cells [4] = test: Mitochondrial ROS generation, MitoSox, confocal; format: cell-based, human; settings: MitoSox 5 μM, 10 min, 20 μM peptide (FIG. 8)
Experimental: In brief, HeLa cells were grown to 70% confluency on a Lab-Tek chamber glass slide one day before the experiment. The cells were stained for 10 min with 5 μM of the mitochondrial ROS indicator MitoSox (Invitrogen) in order to visualize ROS generation. Then, the cells were incubated with eMTDΔ4 (SEQ ID NO: 2) for 10 min during which confocal micrographic images were taken to monitor cell morphologies and ROS generation.

MDA-MB-231 cells = test: Atomic force microscopy of pores formed on the cell membrane; format: cell-based
Experimental: In this regard, MDA-MB-231 cells were treated with eMTDΔ4 (SEQ ID NO: 2) and pores formed on the cell membrane were observed using an atomic force microscope.

HeLa [5] = test: MTS assay, relative cell viability, HeLa; format: cell-based, human
Experimental: as §1, §2
For use in assaying the peptides eMTD (SEQ ID NO: 1) and eMTDΔ4 (SEQ ID NO: 2) synthesized in Example 1 for activity of inducing cell death, the cell line HeLa was grown to about 90% confluency in 96-well plates. The cells were washed once with HBSS buffer before treatment with the peptides of the present disclosure eMTD (SEQ ID NO: 1) and eMTDΔ4 (SEQ ID NO: 2) at concentrations of 0, 20, and 40 for one hour. Thereafter, the cells were incubated with an MTS assay agent (Promega) for one hour, followed by reading absorbance to calculate relative viability of cells.
as §3

HeLa [6] = test: MTS assay, relative cell viability, HeLa; format: cell-based, human; settings: 10 μM, Table 4

KLNFRQKLLNLISKLF [eMTDΔ4] was tested, and the “change in intracellular calcium level” value (HeLa cells [1]) was “calcium influx into the cytosols thereof within less than one min”, the “Viability (%)” value (CT26; CT26, 10 μM) was 69% and the “Viability (%)” value (CT26; CT26, 20 μM) was 21%. For the same sequence, the “induction of cell death (in words)” value (CT26; CT26, FIG. 3 and Table 4) was “induce cell death”, the “Viability (%)” value (B16F10; B16F10, 10 μM) was 68% and the “Viability (%)” value (B16F10; B16F10, 20 μM) was 33%. The “induction of cell death (in words)” value (B16F10; B16F10, FIG. 3 and Table 4) was “induce cell death”, the “morphological change in cells” value (HeLa cells [2]) was “most of the cells were observed to undergo necrosis with the consequent rupture of cell membranes after 3 min” and the “mitochondrial swelling (in words)” value ([3]; 25 μM, absorbance 540 nm and TEM, FIGS. 6A and 6B) was “induce mitochondrial swelling”. For the same sequence, the “Mitochondrial swelling, relative absorbance at 540 nm” value ([3]; Minute 0) was 100%, the “Mitochondrial swelling, relative absorbance at 540 nm” value ([3]; Minute 10) was 79% and the “Mitochondrial swelling, relative absorbance at 540 nm” value ([3]; Minute 20) was 74%. For the same sequence, the “Mitochondrial swelling, relative absorbance at 540 nm” value ([3]; Minute 30) was 70%, the “Mitochondrial swelling, relative absorbance at 540 nm” value ([3]; Minute 40) was 68% and the “Mitochondrial swelling, relative absorbance at 540 nm” value ([3]; Minute 50) was 66%. For the same sequence, the “Mitochondrial swelling, relative absorbance at 540 nm” value ([3]; Minute 60) was 65%, the “mitochondrial ROS level” value (HeLa cells [4]) was “abruptly increased in ROS level just after the cell membrane bubbling” and the “Counts of membrane pores” value (MDA-MB-231 cells; Length 0.675~0.975, t = 30 sec) was 38.03. For the same sequence, the “Counts of membrane pores” value (MDA-MB-231 cells; Length 0.675~0.975, t = 2 min) was 20.63, the “Counts of membrane pores” value (MDA-MB-231 cells; Length 0.675~0.975, t = 5 min) was 14.81 and the “Counts of membrane pores” value (MDA-MB-231 cells; Length 0.675~0.975, t = 40 min) was 2.5. The “Counts of membrane pores” value (MDA-MB-231 cells; Length 1.025~1.325, t = 30 sec) was 43.66, the “Counts of membrane pores” value (MDA-MB-231 cells; Length 1.025~1.325, t = 2 min) was 38.1 and the “Counts of membrane pores” value (MDA-MB-231 cells; Length 1.025~1.325, t = 5 min) was 39.51. The “Counts of membrane pores” value (MDA-MB-231 cells; Length 1.025~1.325, t = 40 min) was 22.5, the “Counts of membrane pores” value (MDA-MB-231 cells; Length 1.375~1.675, t = 30 sec) was 9.859 and the “Counts of membrane pores” value (MDA-MB-231 cells; Length 1.375~1.675, t = 2 min) was 20.63. For the same sequence, the “Counts of membrane pores” value (MDA-MB-231 cells; Length 1.375~1.675, t = 5 min) was 20.99, the “Counts of membrane pores” value (MDA-MB-231 cells; Length 1.375~1.675, t = 40 min) was 22.5 and the “Counts of membrane pores” value (MDA-MB-231 cells; Length 1.725~2.025, t = 30 sec) was 4.225. The “Counts of membrane pores” value (MDA-MB-231 cells; Length 1.725~2.025, t = 2 min) was 14.29, the “Counts of membrane pores” value (MDA-MB-231 cells; Length 1.725~2.025, t = 5 min) was 13.58 and the “Counts of membrane pores” value (MDA-MB-231 cells; Length 1.725~2.025, t = 40 min) was 22.5. The “Counts of membrane pores” value (MDA-MB-231 cells; Length 2.075~2.725, t = 30 sec) was 2.817, the “Counts of membrane pores” value (MDA-MB-231 cells; Length 2.075~2.725, t = 2 min) was 6.349 and the “Counts of membrane pores” value (MDA-MB-231 cells; Length 2.075~2.725, t = 5 min) was 9.877. For the same sequence, the “Counts of membrane pores” value (MDA-MB-231 cells; Length 2.075~2.725, t = 40 min) was 22.5, the “Counts of membrane pores” value (MDA-MB-231 cells; Length 2.775<, t = 30 sec) was 0 and the “Counts of membrane pores” value (MDA-MB-231 cells; Length 2.775<, t = 2 min) was 0. The “Counts of membrane pores” value (MDA-MB-231 cells; Length 2.775<, t = 5 min) was 1.235, the “Counts of membrane pores” value (MDA-MB-231 cells; Length 2.775<, t = 40 min) was 7.5 and the “Counts of membrane pores” value (MDA-MB-231 cells; Length >0.625, t = 30 sec) was 1.408. For the same sequence, the “Counts of membrane pores” value (MDA-MB-231 cells; Length >0.625, t = 2 min) was 0, the “Counts of membrane pores” value (MDA-MB-231 cells; Length >0.625, t = 5 min) was 0 and the “Counts of membrane pores” value (MDA-MB-231 cells; Length >0.625, t = 40 min) was 0. For the same sequence, the “pore formation on cell membrane (in words)” value (MDA-MB-231 cells; MDA-MB-231, FIG. 10d and Table 7) was “larger pores were formed with time”, the “Viability (%)” value (HeLa [5]; 20 μM, Table 4) was 11% and the “Viability (%)” value (HeLa [5]; 20 μM, one hour treatment, Table 3) was 53%. The “Viability (%)” value (HeLa [5]; 40 μM, one hour treatment, Table 3) was 40%, the “cell death activity (in words)” value (HeLa [5]; FIG. 1 and Table 3) was “potent cell death activity” and the “induction of cell death (in words)” value (HeLa [5]; FIG. 3 and Table 4) was “induce cell death”. The “Viability (%)” value (HeLa [6]) was 47%.
